What was measured:
Experiment in all cases: KINOMEscan competition binding
Details in all cases: compound 10.0 µM
CAMK2B (human) = CAMK2B (human) (UniProt Q13554)
ADCK3 (human) = ADCK3 (human) (UniProt Q8NI60)
RPS6KA6 KD2 (human) = RPS6KA6 KD2 (human) (UniProt Q9UK32)
PKN2 (human) = PKN2 (human) (UniProt Q16513)
CLK2 (human) = CLK2 (human) (UniProt P49760)
CDK3 (human) = CDK3 (human) (UniProt Q00526)
HIPK1 (human) = HIPK1 (human) (UniProt Q86Z02)
FRK (human) = FRK (human) (UniProt P42685)
ERBB4 (human) = ERBB4 (human) (UniProt Q15303)
MAPK15 (human) = MAPK15 (human) (UniProt Q8TD08)
PRKD1 (human) = PRKD1 (human) (UniProt Q15139)
AURKB (human) = AURKB (human) (UniProt Q96GD4)
TGFBR1 (human) = TGFBR1 (human) (UniProt P36897)
ACVR2A (human) = ACVR2A (human) (UniProt P27037)
MAPK14 (human) = MAPK14 (human) (UniProt Q16539)
LIMK2 (human) = LIMK2 (human) (UniProt P53671)
LATS1 (human) = LATS1 (human) (UniProt O95835)
ERBB2 (human) = ERBB2 (human) (UniProt P04626)
FGFR3 (human) = FGFR3 (human) (UniProt P22607)
ULK2 (human) = ULK2 (human) (UniProt Q8IYT8)
DDR2 (human) = DDR2 (human) (UniProt Q16832)
DYRK1B (human) = DYRK1B (human) (UniProt Q9Y463)
FGR (human) = FGR (human) (UniProt P09769)
ULK3 (human) = ULK3 (human) (UniProt Q6PHR2)
CDC2L2 (human) = CDC2L2 (human) (UniProt Q9UQ88)
PHKG1 (human) = PHKG1 (human) (UniProt Q16816)
AKT2 (human) = AKT2 (human) (UniProt P31751)
DAPK2 (human) = DAPK2 (human) (UniProt Q9UIK4)
PRKG1 (human) = PRKG1 (human) (UniProt Q13976)
RPS6KA6 KD1 (human) = RPS6KA6 KD1 (human) (UniProt Q9UK32)
MAP3K5 (human) = MAP3K5 (human) (UniProt Q99683)
MAPK1 (human) = MAPK1 (human) (UniProt P28482)
SRPK3 (human) = SRPK3 (human) (UniProt Q9UPE1)
CDC42BPB (human) = CDC42BPB (human) (UniProt Q9Y5S2)
MAPKAPK5 (human) = MAPKAPK5 (human) (UniProt Q8IW41)
MST4 (human) = MST4 (human) (UniProt Q9P289)
SRMS (human) = SRMS (human) (UniProt Q9H3Y6)
TLK2 (human) = TLK2 (human) (UniProt Q86UE8)
RET (human) = RET (human) (UniProt P07949)
PIK3CD (human) = PIK3CD (human) (UniProt O00329)

Chain of CAMK2B (human) (Q13554 whole entry, looked up): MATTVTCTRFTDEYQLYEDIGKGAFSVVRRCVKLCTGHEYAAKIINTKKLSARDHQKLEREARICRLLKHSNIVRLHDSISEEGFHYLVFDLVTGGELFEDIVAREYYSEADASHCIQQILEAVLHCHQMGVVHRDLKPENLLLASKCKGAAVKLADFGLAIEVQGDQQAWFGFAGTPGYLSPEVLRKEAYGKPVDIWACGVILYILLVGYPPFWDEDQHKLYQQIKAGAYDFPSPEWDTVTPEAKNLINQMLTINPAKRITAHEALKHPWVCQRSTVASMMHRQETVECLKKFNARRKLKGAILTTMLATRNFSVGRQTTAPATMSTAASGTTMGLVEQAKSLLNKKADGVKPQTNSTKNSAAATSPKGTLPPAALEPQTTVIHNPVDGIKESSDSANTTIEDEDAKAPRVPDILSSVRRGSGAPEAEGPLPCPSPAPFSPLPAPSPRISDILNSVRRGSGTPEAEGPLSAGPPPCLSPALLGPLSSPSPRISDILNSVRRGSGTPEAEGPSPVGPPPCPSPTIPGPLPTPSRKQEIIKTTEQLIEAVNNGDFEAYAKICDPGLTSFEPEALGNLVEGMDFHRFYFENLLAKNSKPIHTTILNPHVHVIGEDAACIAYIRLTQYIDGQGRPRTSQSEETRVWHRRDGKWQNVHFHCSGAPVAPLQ
Chain of MAPK15 (human) (Q8TD08 whole entry, looked up): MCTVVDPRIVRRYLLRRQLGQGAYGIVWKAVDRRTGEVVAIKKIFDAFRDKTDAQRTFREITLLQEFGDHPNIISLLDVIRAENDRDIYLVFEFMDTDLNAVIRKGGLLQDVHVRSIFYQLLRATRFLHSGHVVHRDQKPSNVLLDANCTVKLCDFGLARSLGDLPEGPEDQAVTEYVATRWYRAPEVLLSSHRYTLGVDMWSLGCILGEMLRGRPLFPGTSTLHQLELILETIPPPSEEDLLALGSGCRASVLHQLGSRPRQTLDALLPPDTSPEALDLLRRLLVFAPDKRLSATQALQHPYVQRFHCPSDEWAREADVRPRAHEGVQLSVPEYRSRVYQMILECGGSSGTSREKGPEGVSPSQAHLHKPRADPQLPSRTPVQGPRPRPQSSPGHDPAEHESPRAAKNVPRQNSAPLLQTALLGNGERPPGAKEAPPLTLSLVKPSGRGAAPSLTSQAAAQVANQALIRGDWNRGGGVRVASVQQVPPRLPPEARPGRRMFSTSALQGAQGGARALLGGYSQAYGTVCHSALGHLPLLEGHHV
Chain of FGFR3 (human) (P22607 whole entry, looked up): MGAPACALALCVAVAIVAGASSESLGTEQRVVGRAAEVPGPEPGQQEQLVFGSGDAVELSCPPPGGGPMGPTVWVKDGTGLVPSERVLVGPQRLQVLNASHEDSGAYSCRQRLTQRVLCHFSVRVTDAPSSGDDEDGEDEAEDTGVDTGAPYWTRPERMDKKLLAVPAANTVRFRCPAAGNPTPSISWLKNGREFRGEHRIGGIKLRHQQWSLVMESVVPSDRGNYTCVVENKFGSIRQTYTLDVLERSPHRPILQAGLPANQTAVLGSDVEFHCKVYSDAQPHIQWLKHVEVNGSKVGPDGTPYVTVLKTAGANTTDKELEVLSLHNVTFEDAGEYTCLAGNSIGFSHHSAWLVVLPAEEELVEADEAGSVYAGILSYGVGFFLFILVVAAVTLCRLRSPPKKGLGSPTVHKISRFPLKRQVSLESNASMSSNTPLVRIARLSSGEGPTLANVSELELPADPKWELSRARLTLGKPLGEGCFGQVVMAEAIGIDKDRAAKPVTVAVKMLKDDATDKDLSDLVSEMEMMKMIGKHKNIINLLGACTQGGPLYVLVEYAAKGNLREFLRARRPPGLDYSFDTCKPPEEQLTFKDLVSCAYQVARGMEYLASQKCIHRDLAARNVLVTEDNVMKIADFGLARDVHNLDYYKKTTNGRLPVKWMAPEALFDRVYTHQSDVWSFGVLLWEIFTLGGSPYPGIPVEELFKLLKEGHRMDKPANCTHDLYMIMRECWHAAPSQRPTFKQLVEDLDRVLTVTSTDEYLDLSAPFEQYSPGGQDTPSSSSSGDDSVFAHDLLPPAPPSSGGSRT
Chain of SRMS (human) (Q9H3Y6 whole entry, looked up): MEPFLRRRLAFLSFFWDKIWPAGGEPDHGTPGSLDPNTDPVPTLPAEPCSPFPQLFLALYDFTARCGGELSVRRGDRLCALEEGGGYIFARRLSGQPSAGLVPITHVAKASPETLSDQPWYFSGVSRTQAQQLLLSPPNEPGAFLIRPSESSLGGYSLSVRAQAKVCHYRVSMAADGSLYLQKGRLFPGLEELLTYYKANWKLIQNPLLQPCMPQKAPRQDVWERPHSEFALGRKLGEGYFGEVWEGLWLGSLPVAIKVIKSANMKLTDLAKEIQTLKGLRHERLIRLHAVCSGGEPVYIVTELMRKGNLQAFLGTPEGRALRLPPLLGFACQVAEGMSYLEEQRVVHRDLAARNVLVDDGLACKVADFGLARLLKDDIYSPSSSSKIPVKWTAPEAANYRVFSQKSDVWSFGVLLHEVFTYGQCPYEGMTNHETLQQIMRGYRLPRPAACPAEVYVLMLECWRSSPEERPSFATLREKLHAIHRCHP
Chain of PKN2 (human) (Q16513 whole entry, looked up): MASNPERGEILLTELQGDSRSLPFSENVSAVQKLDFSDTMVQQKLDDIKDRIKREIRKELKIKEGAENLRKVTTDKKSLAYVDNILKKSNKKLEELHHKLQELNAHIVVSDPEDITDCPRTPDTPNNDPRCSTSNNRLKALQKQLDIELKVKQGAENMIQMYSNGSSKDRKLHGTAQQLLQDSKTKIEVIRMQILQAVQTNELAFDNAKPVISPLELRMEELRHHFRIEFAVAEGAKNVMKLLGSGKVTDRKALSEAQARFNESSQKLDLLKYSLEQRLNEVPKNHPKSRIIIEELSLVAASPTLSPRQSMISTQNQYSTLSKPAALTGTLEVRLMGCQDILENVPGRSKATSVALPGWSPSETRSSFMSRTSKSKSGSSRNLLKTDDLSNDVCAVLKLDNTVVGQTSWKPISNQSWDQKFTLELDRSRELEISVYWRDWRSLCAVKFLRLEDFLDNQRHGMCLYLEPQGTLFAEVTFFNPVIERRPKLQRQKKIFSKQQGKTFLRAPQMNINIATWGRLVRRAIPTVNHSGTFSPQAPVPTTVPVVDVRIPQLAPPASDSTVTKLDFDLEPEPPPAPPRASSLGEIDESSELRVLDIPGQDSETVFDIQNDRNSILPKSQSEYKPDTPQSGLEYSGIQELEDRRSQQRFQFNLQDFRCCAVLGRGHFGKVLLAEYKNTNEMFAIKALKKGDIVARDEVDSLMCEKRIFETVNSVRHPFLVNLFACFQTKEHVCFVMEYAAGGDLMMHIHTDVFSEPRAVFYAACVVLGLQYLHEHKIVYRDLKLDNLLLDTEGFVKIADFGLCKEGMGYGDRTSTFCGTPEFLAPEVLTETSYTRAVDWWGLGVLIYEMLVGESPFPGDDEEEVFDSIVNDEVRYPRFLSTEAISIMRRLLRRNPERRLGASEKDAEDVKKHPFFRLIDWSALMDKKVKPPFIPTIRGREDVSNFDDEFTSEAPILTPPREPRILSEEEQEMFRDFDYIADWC
Chain of PRKD1 (human) (Q15139 whole entry, looked up): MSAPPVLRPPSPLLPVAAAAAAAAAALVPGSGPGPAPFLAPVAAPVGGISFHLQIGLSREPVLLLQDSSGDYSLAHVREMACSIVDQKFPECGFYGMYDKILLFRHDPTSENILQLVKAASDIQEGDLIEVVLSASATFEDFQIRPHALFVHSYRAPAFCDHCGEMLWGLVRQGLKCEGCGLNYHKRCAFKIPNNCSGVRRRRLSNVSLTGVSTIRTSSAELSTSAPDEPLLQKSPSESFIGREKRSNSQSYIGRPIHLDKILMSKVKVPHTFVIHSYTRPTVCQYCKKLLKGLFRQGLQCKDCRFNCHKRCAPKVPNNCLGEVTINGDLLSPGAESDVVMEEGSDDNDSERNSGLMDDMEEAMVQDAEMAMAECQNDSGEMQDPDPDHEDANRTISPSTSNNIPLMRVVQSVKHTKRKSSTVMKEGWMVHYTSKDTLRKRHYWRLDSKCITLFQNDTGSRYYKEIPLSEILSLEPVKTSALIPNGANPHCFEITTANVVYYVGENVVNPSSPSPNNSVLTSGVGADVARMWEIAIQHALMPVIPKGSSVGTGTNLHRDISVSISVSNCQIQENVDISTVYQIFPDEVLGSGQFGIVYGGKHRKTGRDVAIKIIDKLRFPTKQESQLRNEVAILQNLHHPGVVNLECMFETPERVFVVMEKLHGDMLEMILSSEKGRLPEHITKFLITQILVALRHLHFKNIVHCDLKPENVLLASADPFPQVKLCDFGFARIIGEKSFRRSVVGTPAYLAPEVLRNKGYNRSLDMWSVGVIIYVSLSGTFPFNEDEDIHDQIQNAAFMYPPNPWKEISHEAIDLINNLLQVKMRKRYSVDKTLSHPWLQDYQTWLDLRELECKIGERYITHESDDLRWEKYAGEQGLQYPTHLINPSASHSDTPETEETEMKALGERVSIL
Chain of AKT2 (human) (P31751 whole entry, looked up): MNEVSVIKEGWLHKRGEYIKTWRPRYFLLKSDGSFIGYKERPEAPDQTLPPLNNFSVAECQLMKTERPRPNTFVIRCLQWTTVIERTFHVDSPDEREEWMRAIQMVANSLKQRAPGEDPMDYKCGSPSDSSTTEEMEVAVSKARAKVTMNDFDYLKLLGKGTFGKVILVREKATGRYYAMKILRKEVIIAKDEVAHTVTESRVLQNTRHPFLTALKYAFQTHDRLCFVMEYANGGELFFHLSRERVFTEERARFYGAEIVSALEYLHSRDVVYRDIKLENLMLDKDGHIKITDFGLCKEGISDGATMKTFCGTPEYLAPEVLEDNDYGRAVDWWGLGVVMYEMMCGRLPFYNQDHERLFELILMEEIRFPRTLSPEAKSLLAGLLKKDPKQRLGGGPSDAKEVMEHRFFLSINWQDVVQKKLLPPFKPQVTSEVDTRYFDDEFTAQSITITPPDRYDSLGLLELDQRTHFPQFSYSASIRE

Structure (SMILES)	kinase still bound, per cent of control (CAMK2B (human)) [%]	kinase still bound, per cent of control (ADCK3 (human)) [%]	kinase still bound, per cent of control (RPS6KA6 KD2 (human)) [%]	kinase still bound, per cent of control (PKN2 (human)) [%]	kinase still bound, per cent of control (CLK2 (human)) [%]	kinase still bound, per cent of control (CDK3 (human)) [%]	kinase still bound, per cent of control (HIPK1 (human)) [%]	kinase still bound, per cent of control (FRK (human)) [%]	kinase still bound, per cent of control (ERBB4 (human)) [%]	kinase still bound, per cent of control (MAPK15 (human)) [%]	kinase still bound, per cent of control (PRKD1 (human)) [%]	kinase still bound, per cent of control (AURKB (human)) [%]	kinase still bound, per cent of control (TGFBR1 (human)) [%]	kinase still bound, per cent of control (ACVR2A (human)) [%]	kinase still bound, per cent of control (MAPK14 (human)) [%]	kinase still bound, per cent of control (LIMK2 (human)) [%]	kinase still bound, per cent of control (LATS1 (human)) [%]	kinase still bound, per cent of control (ERBB2 (human)) [%]	kinase still bound, per cent of control (FGFR3 (human)) [%]	kinase still bound, per cent of control (DDR2 (human)) [%]	further results
CCOc1cc2ncc(C#N)c(Nc3ccc(OCc4ccccn4)c(Cl)c3)c2cc1NC(=O)/C=C/CN(C)C	100	95	97	72	100	100	71	100	0	100	74	75	100	100	91	100	90	0	98	100	kinase still bound, per cent of control (ULK2 (human)): 100%; kinase still bound, per cent of control (DYRK1B (human)): 99%; kinase still bound, per cent of control (FGR (human)): 40%; kinase still bound, per cent of control (ULK3 (human)): 100%; kinase still bound, per cent of control (CDC2L2 (human)): 100%; kinase still bound, per cent of control (PHKG1 (human)): 92%; kinase still bound, per cent of control (AKT2 (human)): 99%; kinase still bound, per cent of control (DAPK2 (human)): 87%; kinase still bound, per cent of control (PRKG1 (human)): 94%; kinase still bound, per cent of control (RPS6KA6 KD1 (human)): 86%; kinase still bound, per cent of control (MAP3K5 (human)): 100%; kinase still bound, per cent of control (MAPK1 (human)): 100%; kinase still bound, per cent of control (SRPK3 (human)): 77%; kinase still bound, per cent of control (CDC42BPB (human)): 100%; kinase still bound, per cent of control (MAPKAPK5 (human)): 89%; kinase still bound, per cent of control (MST4 (human)): 2%; kinase still bound, per cent of control (SRMS (human)): 91%
Cc1cc([C@@H](C)Nc2ccccc2C(=O)O)c2nc(N3CCOCC3)cc(=O)n2c1	83	86	100	98	70	100	100	83	100	100	89	96	100	94	97	100	100	100	83	83	kinase still bound, per cent of control (TLK2 (human)): 88%; kinase still bound, per cent of control (RET (human)): 100%; kinase still bound, per cent of control (ULK2 (human)): 100%; kinase still bound, per cent of control (FGR (human)): 95%; kinase still bound, per cent of control (ULK3 (human)): 98%; kinase still bound, per cent of control (CDC2L2 (human)): 100%; kinase still bound, per cent of control (PHKG1 (human)): 93%; kinase still bound, per cent of control (AKT2 (human)): 86%; kinase still bound, per cent of control (DAPK2 (human)): 92%; kinase still bound, per cent of control (PRKG1 (human)): 100%; kinase still bound, per cent of control (RPS6KA6 KD1 (human)): 71%; kinase still bound, per cent of control (MAP3K5 (human)): 100%; kinase still bound, per cent of control (MAPK1 (human)): 100%; kinase still bound, per cent of control (SRPK3 (human)): 100%; kinase still bound, per cent of control (CDC42BPB (human)): 100%; kinase still bound, per cent of control (MAPKAPK5 (human)): 100%; kinase still bound, per cent of control (MST4 (human)): 100%; kinase still bound, per cent of control (SRMS (human)): 63%
C[C@@H](Oc1cc(-n2cnc3ccc(CN4CCN(C)CC4)cc32)sc1C(N)=O)c1ccccc1C(F)(F)F	19	77	73	6	69	100	40	100	88	52	20	80	99	100	100	100	100	68	80	77	kinase still bound, per cent of control (TLK2 (human)): 94%; kinase still bound, per cent of control (PIK3CD (human)): 14%; kinase still bound, per cent of control (RET (human)): 100%; kinase still bound, per cent of control (DYRK1B (human)): 89%; kinase still bound, per cent of control (FGR (human)): 82%; kinase still bound, per cent of control (ULK3 (human)): 100%; kinase still bound, per cent of control (CDC2L2 (human)): 100%; kinase still bound, per cent of control (PHKG1 (human)): 94%; kinase still bound, per cent of control (AKT2 (human)): 100%; kinase still bound, per cent of control (DAPK2 (human)): 15%; kinase still bound, per cent of control (PRKG1 (human)): 100%; kinase still bound, per cent of control (RPS6KA6 KD1 (human)): 0.6%; kinase still bound, per cent of control (MAP3K5 (human)): 100%; kinase still bound, per cent of control (MAPK1 (human)): 100%; kinase still bound, per cent of control (SRPK3 (human)): 9.6%; kinase still bound, per cent of control (CDC42BPB (human)): 100%; kinase still bound, per cent of control (MAPKAPK5 (human)): 89%; kinase still bound, per cent of control (MST4 (human)): 95%; kinase still bound, per cent of control (SRMS (human)): 74%
